Test results published in US20100256086A1, “NON-HYDROLYZABLE NUCLEOSIDE DI- OR TRI-PHOSPHATE DERIVATIVES AND USES THEREOF” (priority 2007, published 2010).
Blank lines part the entries; values can stand above or below the molecule they belong to.

Legend:
perfused rat pancreas = conditions: cited from earlier work
turkey P2Y1 = target: T1, turkey P2Y1 (Meleagris gallopavo, UniProt P49652); experiment: Intracellular calcium measurement ([Ca2+]i, fura-2) in 1321N1 astrocytoma cells; assay type: cell-based; conditions: for activities at the P2YRs tested: P2Y1, P2Y2, P2Y4 and P2Y6 tested; for EC50: human 1321N1 astrocytoma cells expressing turkey P2Y1, read-out: Compound-induced activation of [Ca2+] EC50, P2Y1
T1 construct: expressed in transfected cells
Procedure: (§1) Human 1321N1 astrocytoma cells stably expressing the turkey P2Y1, human P2Y2, human P2Y4 or rat P2Y6 were grown in Dulbecco's modified Eagle's medium containing 5% (v/v) fetal bovine serum, 100 units/ml penicillin, 100 μg/ml streptomycin and 500 μg/ml Geneticin (G-418, Life Technologies, Inc). Changes in the intracellular free calcium concentration, [Ca^2+]i were detected by dual-excitation spectrofluorometric analysis of cell suspensions loaded with fura-2, as previously described (Garrad et al., 1998; Grynkiewicz et al., 1985). Cells were assayed in 10 mM Hepes-buffered saline (pH 7.4) containing 1 mM CaCl2 and 1 mM MgCl2. The cells were pelleted in a microfuge and resuspended in 2 ml of buffer. Concentration-response data were analyzed with the Prism curve fitting program (GraphPAD Software, San Diego, Calif.). Three experiments were conducted on separate days for each P2Y receptor subtype.
(§2) The activities of compounds 2, 4B, 17, 18, 19A, 21 (isomers A and B) were examined at the G protein-coupled P2YRs, P2Y1, P2Y2, P2Y4 and P2Y6 expressed in human 1321N1 astrocytoma cells, based on intracellular calcium measurements, as described in Experimental above. In particular, the activity of compound 2, 4B and 19 was examined at P2Y1R, P2Y2R, P2Y4R and P2Y6R, and the activity of compounds 17, 18 and 21 was examined at P2Y1R only. The experiments were conducted by Prof. Gary A. Weisman from Columbia-Missouri University, Columbia, Mo., USA.

[1] = Stability in human blood serum, Method A; assay type: in vitro ADME; conditions: human blood serum and RPMI-1640, 37° C.
Procedure: (§3) Preparation of the Human Blood Serum: Blood Taken from Healthy Volunteers was obtained from a blood bank (Tel-Hashomer hospital, Israel), stored for 12 h at 4° C. and centrifuged in plastic tubes at 1500 g for 15 min at room temperature. The serum was separated and stored at −80° C.
The assay mixture, containing a 40 mM nucleotide derivative solution in deionized water (4.5 μl), human blood serum (180 μl) and RPMI-1640 (540 μl), was incubated at 37° C. for 1, 4, 8, 16, 24, 48, 72 and 96 h. The samples were then treated with 0.6 M of hydrochloric acid (430 μl), centrifuged for 2 min (13,000 g, 4° C.), neutralized by addition of 4 M of KOH, centrifuged for 2 min (13,000 g, 4° C.) and freeze-dried. The stability of the nucleotide was evaluated by HPLC for monitoring possible dephosphorylation products. The mixture was separated on a Gemini analytic column (5u C-18 110A, 150×4.60 mm) with gradient elution [0.01 M KH2PO4 pH=4.5 (A)/acetonitrile (B), 100:0→60:40, A:B, 20 min for 2, 3A and 3B; 100:0→95:5, A:B, 10 min for ATP] and flow rate of 1 ml/min. The hydrolysis rate was determined by measuring the change in the integration of the respective HPLC peaks with time.

[2] = cited from earlier work
[3] = Stability in human blood serum, Method B; assay type: in vitro ADME; conditions: human blood serum and RPMI-1640, 37° C.
Procedure: as §3
The assay mixture, containing a 40 mM nucleotide derivative solution in deionized water (4.5 μl), human blood serum (180 μl) and RPMI-1640 (540 μl), was incubated at 37° C. for 1, 4, 8, 16, 24, 48, 72, 96, 120 and 144 h. The samples were then heated to 80° C. for 30 min, treated with CM Sephadex (1-2 mg) for 2 h, centrifuged for 6 min (12,000 rpm) and extracted with chloroform (2×500 μl). The aqueous layer was freeze-dried. The stability of the nucleotide was evaluated by HPLC for monitoring possible dephosphorylation products. The mixture was separated on a Gemini analytic column (5u C-18 110A, 150×4.60 mm) with gradient elution [100 mM TEAA, pH 7 (A)/MeOH (B), 79:21, A:B, 15 min for 4A and 4B; 100 mM TEAA, pH 7 (A)/acetonitryl (B), A:B, 10 min, 100:0→90:10 A:B 10 min, 90:10→80:20 A:B 4 min, 80:20 A:B 1 min for ATP] and flow rate of 1 ml/min. The hydrolysis rate was determined by measuring the change in the integration of the respective HPLC peaks with time.

ecto-nucleotidases = conditions: muscle strips preparations, 60 min incubation; cited from earlier work
human P2Y2 = target: T2, human P2Y2 (Homo sapiens, UniProt P41231); experiment: Intracellular calcium measurement ([Ca2+]i, fura-2) in 1321N1 astrocytoma cells; assay type: cell-based; set-up: key to Compound-induced activation of [Ca2+], P2Y2, response class: sr = slight response at 100 μM; nr = no response
T2 construct: expressed in transfected cells
Procedure: as §1, §2

human P2Y4 = target: T3, human P2Y4 (Homo sapiens, UniProt P51582); experiment: as above; assay type: cell-based; set-up: key to Compound-induced activation of [Ca2+], P2Y4, response class: sr = slight response at 100 μM; nr = no response; conditions: 1321N1 cells expressing human P2Y4
T3 construct: expressed in transfected cells
Procedure: as §1, §2

rat P2Y6 = target: T4, rat P2Y6 (Rattus norvegicus, UniProt Q63371); experiment: as above; assay type: cell-based; set-up: key to Compound-induced activation of [Ca2+], P2Y6, response class: sr = slight response at 100 μM; nr = no response; conditions: for agonistic effect on P2Y6R: at 100 μM
T4 construct: expressed in transfected cells
Procedure: as §1, §2

[4] = pKa and degree of ionization of terminal phosphonate/phosphate; assay type: physicochemical; conditions: assay conditions, pH 7.4
[5] = target: T5, calf intestine alkaline phosphatase (Bos taurus, UniProt P19111); experiment: Enzymatic stability to alkaline phosphatase; assay type: in vitro ADME; conditions: 37° C., as in Example 6
T5 construct: purchased Fermentas Inc., Glen Burnie, Md
Procedure: Enzyme activity was measured by the release of p-nitrophenol from the nucleotide derivatives using a UV-vis spectrophotometer at 405 nm. Relative activity and resistance of nucleotides to enzymatic hydrolysis were determined at 37° C. Briefly, 32.5 μl of nucleotide derivative (77 μg/ml in 0.1 M Tris-HCl and 0.1 M MgCl2, pH 7.5) and 6 μl of deionized water were incubated with calf intestine alkaline phosphatase (Fermentas Inc., Glen Burnie, Md., 1 unit/μl, 6.25 μl at 37° C. final pH=9.8). After 30 min, the reaction was stopped by incubation at 80° C. for 30 min. The stability of the nucleotide derivative was evaluated by HPLC to monitor possible dephosphorylation products. The mixture was separated on a Gemini analytic column (5u C-18 110A, 150×4.60 mm) using gradient elution with Solvent System I (see Example 1) at 90:10 to 70:30 A:B for 3A and 3B, and 82:18 to 50:50 for 4A, 4B and 2 over 20 min and at a flow rate of 1 ml/min.

[6] = Stability in human blood serum (Example 10)
[7] = 1321N1 cells expressing human P2Y2
[8] = 1321N1 cells expressing rat P2Y6

T1 sequence (P49652 whole entry): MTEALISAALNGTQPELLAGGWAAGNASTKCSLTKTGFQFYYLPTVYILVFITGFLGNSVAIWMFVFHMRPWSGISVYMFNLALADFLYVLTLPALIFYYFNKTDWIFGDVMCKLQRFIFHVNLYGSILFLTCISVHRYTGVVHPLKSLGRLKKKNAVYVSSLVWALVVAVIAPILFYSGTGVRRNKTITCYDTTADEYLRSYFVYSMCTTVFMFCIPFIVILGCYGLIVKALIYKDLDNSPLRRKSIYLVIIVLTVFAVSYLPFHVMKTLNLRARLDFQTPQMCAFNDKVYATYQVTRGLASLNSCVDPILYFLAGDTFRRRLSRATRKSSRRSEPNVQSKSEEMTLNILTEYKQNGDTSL
T3 sequence (P51582 whole entry): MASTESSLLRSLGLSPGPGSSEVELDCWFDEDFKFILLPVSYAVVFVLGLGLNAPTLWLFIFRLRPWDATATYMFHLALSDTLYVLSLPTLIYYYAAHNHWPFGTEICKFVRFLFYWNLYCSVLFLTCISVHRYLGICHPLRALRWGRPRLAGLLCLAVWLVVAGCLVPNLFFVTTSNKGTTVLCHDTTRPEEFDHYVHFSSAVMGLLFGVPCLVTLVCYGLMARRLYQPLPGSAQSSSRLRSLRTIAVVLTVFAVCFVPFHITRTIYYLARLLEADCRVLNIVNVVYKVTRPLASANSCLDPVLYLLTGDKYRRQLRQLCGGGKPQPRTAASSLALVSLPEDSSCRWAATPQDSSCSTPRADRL
T2 sequence (P41231 whole entry): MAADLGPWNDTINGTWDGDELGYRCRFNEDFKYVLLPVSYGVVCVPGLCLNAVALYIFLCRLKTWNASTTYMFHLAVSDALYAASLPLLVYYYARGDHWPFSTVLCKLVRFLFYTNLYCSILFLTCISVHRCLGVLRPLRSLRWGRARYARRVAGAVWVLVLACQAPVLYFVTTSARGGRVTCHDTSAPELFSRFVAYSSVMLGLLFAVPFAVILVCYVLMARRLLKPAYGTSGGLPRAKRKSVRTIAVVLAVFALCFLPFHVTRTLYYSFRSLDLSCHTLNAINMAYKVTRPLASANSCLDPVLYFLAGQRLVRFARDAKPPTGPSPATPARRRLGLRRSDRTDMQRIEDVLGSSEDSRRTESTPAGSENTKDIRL
T4 sequence (Q63371 whole entry): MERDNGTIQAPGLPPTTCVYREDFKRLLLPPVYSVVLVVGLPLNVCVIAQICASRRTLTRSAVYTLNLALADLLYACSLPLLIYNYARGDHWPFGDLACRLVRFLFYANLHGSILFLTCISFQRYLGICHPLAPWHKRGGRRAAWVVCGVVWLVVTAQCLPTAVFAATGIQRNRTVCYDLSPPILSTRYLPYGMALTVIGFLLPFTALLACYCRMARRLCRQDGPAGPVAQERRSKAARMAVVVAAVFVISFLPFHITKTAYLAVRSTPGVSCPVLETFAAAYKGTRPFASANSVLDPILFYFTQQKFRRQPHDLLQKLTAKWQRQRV
T5 sequence (P19111 20-506): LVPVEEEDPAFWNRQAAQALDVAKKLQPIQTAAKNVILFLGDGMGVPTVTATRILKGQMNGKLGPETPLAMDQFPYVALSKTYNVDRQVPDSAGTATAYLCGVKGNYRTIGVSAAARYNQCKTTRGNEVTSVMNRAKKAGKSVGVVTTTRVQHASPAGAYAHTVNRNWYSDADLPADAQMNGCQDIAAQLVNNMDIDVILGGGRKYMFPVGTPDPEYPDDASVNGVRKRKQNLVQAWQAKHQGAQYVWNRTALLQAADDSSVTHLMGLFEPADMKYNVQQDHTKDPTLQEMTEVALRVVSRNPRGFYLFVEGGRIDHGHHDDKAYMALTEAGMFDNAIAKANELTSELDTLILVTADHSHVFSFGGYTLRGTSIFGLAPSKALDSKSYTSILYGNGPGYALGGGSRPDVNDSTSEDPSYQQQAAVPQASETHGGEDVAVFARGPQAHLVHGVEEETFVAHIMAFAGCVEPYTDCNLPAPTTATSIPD

Molecule: 2-MeS-ATP-α-B [Compound 1]
- enhancement of insulin secretion as compared to basal secretion (perfused rat pancreas): 9 fold
- EC50 (perfused rat pancreas; read-out: EC50 of insulin secretion): 28 nM

Molecule: B[P@](=O)(OC[C@H]1O[C@@H](n2cnc3c(N)ncnc32)[C@H](O)[C@@H]1O)OP(=O)(O)CP(=O)(O)O (single isomer, unassigned) [Compound 3A, Adenosine-β,γ-CH2-5′-O-(1-boranotriphosphate)]
- activity at P2Y1R, in words (turkey P2Y1): practically inactive
- activities at the P2YRs tested (turkey P2Y1): insignificant activities
- half-life in human blood serum [1]: 14.1 h

Molecule: BP(=O)(OC[C@H]1O[C@@H](n2cnc3c(N)nc(SC)nc32)[C@H](O)[C@@H]1O)OP(=O)(O)C(Cl)(Cl)P(=O)(O)O (single isomer, unassigned) [Compound 21, 2MeS-adenosine-β,γ-CCl2-5′-O-(1-boranotriphosphate)]
- pKa value of the terminal phosphonate [2]: about 6.7

Molecule: BP(=O)(OC[C@H]1O[C@@H](n2cnc3c(N)nc(SC)nc32)[C@H](O)[C@@H]1O)OP(=O)(O)C(Cl)(Cl)P(=O)(O)O (single isomer, unassigned) [Compound 21A, 2MeS-adenosine-β,γ-CCl2-5′-O-(1-boranotriphosphate)]
- EC50 (turkey P2Y1): 570 nM

Molecule: BP(=O)(OC[C@H]1O[C@@H](n2cnc3c(N)nc(SC)nc32)[C@H](O)[C@@H]1O)OP(=O)(O)C(Cl)(Cl)P(=O)(O)O (single isomer, unassigned) [Compound 21B, 2MeS-adenosine-β,γ-CCl2-5′-O-(1-boranotriphosphate)]
- EC50 (turkey P2Y1): 1200 nM

Molecule: Nc1ncnc2c1ncn2[C@@H]1O[C@H](COP(=O)(O)OP(=O)(O)OP(=O)(O)O)[C@@H](O)[C@H]1O [ATP, reference compound]
- half-life in human blood serum [1]: 3.6 h
- half-life in human blood serum [3]: 7.7 h
- degradation by ecto-nucleotidases (ecto-nucleotidases): completely dephosphorylated

Molecule: CSc1nc(N)c2ncn(C3OC(COP(=O)(O)OP(=O)(O)CP(=O)(O)O)C(O)C3O)c2n1 (stereo not drawn) [Compound 2, β,γ-CH2-2MeS-adenosine-5′-triphosphate]
- EC50 (turkey P2Y1): 80 nM
- activity at P2Y2R, in words (human P2Y2): inactivity
- Compound-induced activation of [Ca2+], P2Y2, response class (human P2Y2; [7]): nr
- Compound-induced activation of [Ca2+], P2Y4, response class (human P2Y4): nr
- Compound-induced activation of [Ca2+], P2Y6, response class (rat P2Y6; [8]): sr
- agonistic effect on P2Y6R (rat P2Y6): slight agonistic effect
- half-life in human blood serum [1]: 12.7 h
- fraction ionized [4]: 9%
- degradation by ecto-nucleotidases (ecto-nucleotidases): no degradation

- fraction ionized [4]: 91%
Molecule: CSc1nc(N)c2ncn([C@@H]3O[C@H](COP(=O)(O)OP(=O)(O)O)[C@@H](O)[C@H]3O)c2n1 [Compound 2-MeS-ADP, 2-MeS-ADP, reference compound]

Molecule: B[P@](=O)(OC[C@H]1O[C@@H](n2cnc3c(N)nc(SC)nc32)[C@H](O)[C@@H]1O)OP(=O)(O)CP(=O)(O)O [Compound 4A, 2MeS-adenosine-β,γ-CH2-5′-O-(1-boranotriphosphate)]
- activities at the P2YRs tested (turkey P2Y1): insignificant activities
- activity at P2Y2R, in words (human P2Y2): inactivity

Molecule: B[P@](=O)(OC[C@H]1O[C@@H](n2cnc3c(N)nc(SC)nc32)[C@H](O)[C@@H]1O)OP(=O)(O)CP(=O)(O)O [Compound 4B, 2MeS-adenosine-β,γ-CH2-5′-O-(1-boranotriphosphate)]
- EC50 (turkey P2Y1): 17200 nM
- Compound-induced activation of [Ca2+], P2Y2, response class (human P2Y2; [7]): nr
- Compound-induced activation of [Ca2+], P2Y4, response class (human P2Y4): nr
- Compound-induced activation of [Ca2+], P2Y6, response class (rat P2Y6; [8]): sr
- agonistic effect on P2Y6R (rat P2Y6): slight agonistic effect
- half-life in human blood serum [3]: 71.9 h

Molecule: CSc1nc(N)c2ncn([C@@H]3O[C@H](COP(=O)(O)C(Cl)(Cl)P(=O)(O)O)[C@@H](O)[C@H]3O)c2n1 [Compound 17, 2-MeS-adenosine-5′-dichloromethylene-diphosphate]
- EC50 (turkey P2Y1): 3100 nM
- pKa value of the terminal phosphonate [2]: about 6.7

Molecule: CSc1nc(N)c2ncn([C@@H]3O[C@H](COP(=O)(O)C(F)(F)P(=O)(O)O)[C@@H](O)[C@H]3O)c2n1 [Compound 18, 2-MeS-adenosine-5′-difluoromethylene-diphosphate]
- EC50 (turkey P2Y1): 980 nM
- pKa value of the terminal phosphonate [2]: about 6.7

Molecule: [BH3-]P(=O)(OC[C@H]1O[C@@H](n2cnc3c(N)nc(SC)nc32)[C@H](O)[C@@H]1O)OP(=O)([O-])[O-].[Na+].[Na+].[Na+] (some centres unmarked) [Compound 19A, 2MeS-adenosine-5′-O-(Pα-borano) diphosphate]
- EC50 (turkey P2Y1): 38 nM
- Compound-induced activation of [Ca2+], P2Y2, response class (human P2Y2; [7]): nr
- Compound-induced activation of [Ca2+], P2Y4, response class (human P2Y4): nr
- Compound-induced activation of [Ca2+], P2Y6, response class (rat P2Y6; [8]): nr
- t1/2 to alkaline phosphatase [5]: about 6 h
- half-life in human blood serum ([6]; Example 10): > 24 h
- percentage of the compound hydrolyzed ([6]; human blood serum, after 24 h): 25-40%

- EC50 (rat P2Y6; 1321N1 cells expressing rat P2Y6, read-out: Compound-induced activation of [Ca2+] EC50, P2Y6): 200 ± 60 nM
Molecule: O=c1ccn([C@@H]2O[C@H](COP(=O)(O)OP(=O)(O)O)[C@@H](O)[C@H]2O)c(=O)[nH]1 [UDP, reference compound]

- EC50 (human P2Y2; 1321N1 cells expressing human P2Y2, read-out: Compound-induced activation of [Ca2+] EC50, P2Y2): 640 ± 250 nM
- EC50 (human P2Y4; read-out: Compound-induced activation of [Ca2+] EC50, P2Y4): 480 ± 310 nM
Molecule: O=c1ccn([C@@H]2O[C@H](COP(=O)(O)OP(=O)(O)OP(=O)(O)O)[C@@H](O)[C@H]2O)c(=O)[nH]1 [UTP, reference compound]

Molecule: Nc1ncnc2c1ncn2[C@@H]1O[C@H](COP(=O)(O)OP(=O)(O)CP(=O)(O)O)[C@@H](O)[C@H]1O [β,γ-CH2-ATP]
- degradation by ecto-nucleotidases (ecto-nucleotidases): no degradation
